Read-outs that look alike come from different tables or passages of the source.
Assays:
[1] = biological target: mTOR (Homo sapiens, UniProt P42345); conditions: read-out: mTOR IC50; mTOR complexes / mTOR enzymes; cited from earlier work
[2] = test system: human tumor xenograft models; conditions: cited from earlier work
[3] = test system: acute lymphoblastic leukemia; conditions: in vivo; cited from earlier work
[4] = biological target: PI3Kα (Homo sapiens, UniProt P42336); test: PI3K-alpha fluorescence polarization assay; type: biochemical; conditions: 20 μM PIP2, 25 μM ATP; read-out: PI3Kα Median IC50
[5] = biological target: PI3Kγ (Homo sapiens, UniProt P48736); test: PI3K-gamma fluorescence polarization assay; type: biochemical; conditions: 20 μM PIP2, 25 μM ATP; read-out: PI3Kγ Median IC50
Method in brief: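 Enzyme preincubated with compound in 20 mM HEPES pH 7.5, 2 mM MgCl2, 0.05% CHAPS, 0.01% βME; reaction started with substrate giving 20 μM diC8 PIP2 and 25 μM ATP final, run 30-60 min at room temperature. Stopped with TAMRA-labelled PIP3 detector probe plus GST-GRP; PIP3 formation read by fluorescence polarization after 90-110 min.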

[6] = biological target: T1, mTOR Kinase (FLAG-TOR) (Homo sapiens, UniProt P42345); test: mTOR kinase assay, purified enzyme, DELFIA format; type: biochemical; conditions: 100 μM ATP, 1.25 μM His6-S6K; read-out: mTOR Kinase Median IC50
T1 construct: FLAG

Chain of PI3Kγ (P48736 whole entry, species assumed): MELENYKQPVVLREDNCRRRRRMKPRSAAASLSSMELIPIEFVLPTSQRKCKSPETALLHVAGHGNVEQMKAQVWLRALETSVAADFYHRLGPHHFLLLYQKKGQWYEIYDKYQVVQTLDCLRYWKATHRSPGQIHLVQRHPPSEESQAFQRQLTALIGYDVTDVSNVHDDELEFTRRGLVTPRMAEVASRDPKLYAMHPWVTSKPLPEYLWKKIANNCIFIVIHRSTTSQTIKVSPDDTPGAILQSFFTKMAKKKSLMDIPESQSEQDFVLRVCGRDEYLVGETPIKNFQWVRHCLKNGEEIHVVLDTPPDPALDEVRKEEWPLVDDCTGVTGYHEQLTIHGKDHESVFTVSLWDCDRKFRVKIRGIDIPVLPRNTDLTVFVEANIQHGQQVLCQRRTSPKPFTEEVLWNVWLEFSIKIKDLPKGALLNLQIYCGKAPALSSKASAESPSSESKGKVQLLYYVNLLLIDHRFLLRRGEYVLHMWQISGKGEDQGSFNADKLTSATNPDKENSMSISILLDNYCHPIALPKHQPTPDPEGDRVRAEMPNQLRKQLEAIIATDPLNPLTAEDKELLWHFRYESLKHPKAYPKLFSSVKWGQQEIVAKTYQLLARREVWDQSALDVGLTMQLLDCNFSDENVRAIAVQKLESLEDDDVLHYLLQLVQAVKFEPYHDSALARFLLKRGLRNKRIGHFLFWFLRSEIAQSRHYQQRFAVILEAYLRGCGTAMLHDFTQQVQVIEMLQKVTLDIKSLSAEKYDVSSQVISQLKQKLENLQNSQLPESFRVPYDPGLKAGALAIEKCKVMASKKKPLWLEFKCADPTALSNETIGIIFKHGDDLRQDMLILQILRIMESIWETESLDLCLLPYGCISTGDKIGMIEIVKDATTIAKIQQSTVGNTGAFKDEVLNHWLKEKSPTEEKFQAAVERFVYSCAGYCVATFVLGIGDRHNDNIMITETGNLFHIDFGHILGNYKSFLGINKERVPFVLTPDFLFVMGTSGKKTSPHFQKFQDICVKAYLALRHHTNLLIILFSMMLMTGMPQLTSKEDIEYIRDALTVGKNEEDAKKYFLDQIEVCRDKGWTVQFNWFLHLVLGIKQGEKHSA
Chain of PI3Kα (P42336 whole entry, species assumed): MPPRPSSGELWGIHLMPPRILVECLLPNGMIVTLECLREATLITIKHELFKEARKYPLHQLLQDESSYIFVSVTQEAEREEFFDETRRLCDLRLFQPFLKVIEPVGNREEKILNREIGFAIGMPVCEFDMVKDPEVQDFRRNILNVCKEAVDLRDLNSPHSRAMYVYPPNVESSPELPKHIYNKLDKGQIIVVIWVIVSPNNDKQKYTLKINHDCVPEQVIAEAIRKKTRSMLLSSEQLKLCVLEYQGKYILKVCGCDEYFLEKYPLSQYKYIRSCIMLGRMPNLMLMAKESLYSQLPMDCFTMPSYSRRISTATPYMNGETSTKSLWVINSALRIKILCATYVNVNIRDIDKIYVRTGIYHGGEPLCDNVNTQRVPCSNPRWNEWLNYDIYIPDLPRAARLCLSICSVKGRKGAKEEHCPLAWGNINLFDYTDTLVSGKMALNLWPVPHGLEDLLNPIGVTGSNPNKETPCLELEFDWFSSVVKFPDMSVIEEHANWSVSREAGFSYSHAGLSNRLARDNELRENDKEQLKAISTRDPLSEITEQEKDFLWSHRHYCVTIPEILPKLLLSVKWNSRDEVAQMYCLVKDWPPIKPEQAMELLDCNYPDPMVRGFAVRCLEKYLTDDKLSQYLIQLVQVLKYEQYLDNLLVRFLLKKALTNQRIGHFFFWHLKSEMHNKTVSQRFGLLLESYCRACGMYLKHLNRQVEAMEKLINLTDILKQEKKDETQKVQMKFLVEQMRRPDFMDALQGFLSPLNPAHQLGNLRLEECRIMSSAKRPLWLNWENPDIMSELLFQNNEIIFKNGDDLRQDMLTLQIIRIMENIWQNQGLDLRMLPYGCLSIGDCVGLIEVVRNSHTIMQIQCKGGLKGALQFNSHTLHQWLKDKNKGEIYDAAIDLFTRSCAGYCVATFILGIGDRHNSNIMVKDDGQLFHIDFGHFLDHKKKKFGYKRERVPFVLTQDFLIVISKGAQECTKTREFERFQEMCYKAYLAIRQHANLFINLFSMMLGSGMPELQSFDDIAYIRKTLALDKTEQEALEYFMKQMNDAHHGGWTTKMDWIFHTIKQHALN
Chain of PI3Kα (P27986 whole entry partner, species assumed): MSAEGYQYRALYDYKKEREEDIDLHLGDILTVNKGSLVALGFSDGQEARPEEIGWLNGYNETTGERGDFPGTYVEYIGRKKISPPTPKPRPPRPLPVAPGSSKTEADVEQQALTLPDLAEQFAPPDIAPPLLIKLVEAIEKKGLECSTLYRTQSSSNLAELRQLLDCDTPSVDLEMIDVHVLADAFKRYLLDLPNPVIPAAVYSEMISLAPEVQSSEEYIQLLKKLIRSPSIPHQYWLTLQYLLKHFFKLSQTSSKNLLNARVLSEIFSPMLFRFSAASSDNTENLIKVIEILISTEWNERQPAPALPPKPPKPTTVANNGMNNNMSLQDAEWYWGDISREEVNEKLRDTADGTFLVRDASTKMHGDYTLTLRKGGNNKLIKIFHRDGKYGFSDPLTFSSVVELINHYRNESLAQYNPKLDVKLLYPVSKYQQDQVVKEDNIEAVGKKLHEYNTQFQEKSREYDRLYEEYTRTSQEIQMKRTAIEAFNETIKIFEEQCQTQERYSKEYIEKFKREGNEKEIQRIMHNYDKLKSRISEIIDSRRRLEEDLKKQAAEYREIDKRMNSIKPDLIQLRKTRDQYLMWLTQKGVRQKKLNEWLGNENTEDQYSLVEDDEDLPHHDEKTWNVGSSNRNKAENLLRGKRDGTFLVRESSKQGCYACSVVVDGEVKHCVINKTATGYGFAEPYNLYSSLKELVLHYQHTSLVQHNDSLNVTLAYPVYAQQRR

| SMILES | IC50 [4] | IC50 [5] | IC50 [6] | other results |
| --- | --- | --- | --- | --- |
| FC(F)c1nc2ccccc2n1-c1nc(N2CCOCC2)nc(N2CCOCC2)n1 [ZSTK474, 2-(2-difluoromethylbenzoimidazol-1-yl)-4,6-dimorpholino-1,3,5-triazine] | – | – | – | IC50 [1]: > 10000 nM; tumor growth in mouse human xenograft cancer models ([2]; chronic oral administration, 400 mg/kg, A549, PC-3, WiDr): completely inhibited growth |
| CO[C@H]1C[C@@H]2CC[C@@H](C)[C@@](O)(O2)C(=O)C(=O)N2CCCC[C@H]2C(=O)O[C@H]([C@H](C)C[C@@H]2CC[C@@H](OC(=O)C(C)(CO)CO)[C@H](OC)C2)CC(=O)[C@H](C)/C=C(\C)[C@@H](O)[C@@H](OC)C(=O)[C@H](C)C[C@H](C)/C=C/C=C/C=C/1C [Torisel] | – | – | – | activity in NOS/SCID xenograft mouse model of acute lymphoblastic leukemia [3]: active |
| Cn1c(=O)n(-c2ccc(C(C)(C)C#N)cc2)c2c3cc(-c4cnc5ccccc5c4)ccc3ncc21 [NVP-BEZ-235, 2-methyl-2-(4-(3-methyl-2-oxo-8-(quinolin-3-yl)-2,3-dihydro-1H-imidazo[4,5-c]quinolin-1-yl)phenyl)propanenitrile] | – | – | – | activity in human tumor xenograft models ([2]; prostrate (PC-3) and glioblastoma (U-87)): demonstrated activity |
| O=C(Nc1cccnc1)Nc1nc2cc(-c3nc(N4CCOCC4)c4ccn(CC(F)(F)F)c4n3)ccc2[nH]1 [Compound 46, 1-{5-[4-morpholin-4-yl-7-(2,2,2-trifluoroethyl)-7H-pyrrolo[2,3-d]pyrimidin-2-yl]-1H-benzimidazol-2-yl}-3-pyridin-3-ylurea] | 14 nM | 104 nM | 3.4 nM | – |
| O=C(Nc1ccc(-c2nc(N3CCOCC3)c3ccn(CC(F)(F)F)c3n2)cc1)OCCO [Compound 43, 2-hydroxyethyl{4-[4-morpholin-4-yl-7-(2,2,2-trifluoroethyl)-7H-pyrrolo[2,3-d]pyrimidin-2-yl]phenyl}carbamate] | 570 nM | 1720 nM | 3.9 nM | – |
| NC(=O)Nc1cccc(Cn2ccc3c(N4CCOCC4)nc(-c4ccc(NC(=O)Nc5ccncc5)cc4)nc32)c1 [Compound 20, 1-(4-{7-[3-(carbamoylamino)benzyl]-4-morpholin-4-yl-7H-pyrrolo[2,3-d]pyrimidin-2-yl}phenyl)-3-pyridin-4-ylurea] | 61 nM | 196 nM | 3.5 nM | – |
| O=C(Nc1ccc(CO)cc1)Nc1ccc(-c2nc(N3CCOCC3)c3ccn(CC(F)(F)F)c3n2)cc1 [Compound 40, 1-[4-(hydroxymethyl)phenyl]-3-{4-[4-morpholin-4-yl-7-(2,2,2-trifluoroethyl)-7H-pyrrolo[2,3-d]pyrimidin-2-yl]phenyl}urea] | 12 nM | 80 nM | 1.09 nM | – |
| Oc1cccc(-c2nc(N3CCOCC3)c3oc4ncccc4c3n2)c1 [PI103, 3-(4-(4-morpholinyl)pyrido[3′,2′:4,5]furo[3,2-d]pyrimidin-2-yl)phenol] | – | – | – | activity in human tumor xenograft models ([2]; I.P. dosing in mice, U87MG, PC3, MDA-MB-468, MDA-MB-435, HCT 116, SKOV3, IGROV-1): demonstrated activity |
| O=C(Nc1ccc(-c2nc(N3CCOCC3)c3cc[nH]c3n2)cc1)Nc1cccnc1 [Compound 5, 1-[4-(4-morpholin-4-yl-7H-pyrrolo[2,3-d]pyrimidin-2-yl)phenyl]-3-pyridin-3-ylurea] | 15 nM | 78 nM | 1.7 nM | – |
| O=C(Nc1ccc(-c2nc(N3CCOCC3)c3ccn(CC(F)(F)F)c3n2)cc1)Nc1cccnc1 [Compound 37, 1-{4-[4-morpholin-4-yl-7-(2,2,2-trifluoroethyl)-7H-pyrrolo[2,3-d]pyrimidin-2-yl]phenyl}-3-pyridin-3-ylurea] | 26 nM | 97 nM | 1.09 nM | – |
| CC(C)n1ccc2c(N3CCOCC3)nc(-c3ccc(NC(=O)Nc4ccncc4)cc3)nc21 [Compound 79, 1-[4-(7-isopropyl-4-morpholin-4-yl-7H-pyrrolo[2,3-d]pyrimidin-2-yl)phenyl]-3-pyridin-4-ylurea] | 28 nM | 193 nM | 1.15 nM | – |
| CCN1CCN(C(=O)c2ccc(NC(=O)Nc3ccc(-c4nc(N5CCOCC5)c5ccn(C(C)C)c5n4)cc3)cc2)CC1 [Compound 92, 1-{4-[(4-ethylpiperazin-1-yl)carbonyl]phenyl}-3-{4-[7-(1-methylethyl)-4-morpholin-4-yl-7H-pyrrolo[2,3-d]pyrimidin-2-yl]phenyl}urea] | 8.5 nM | 72 nM | 0.67 nM | – |
| CCn1ccc2c(N3CCOCC3)nc(-c3ccc(NC(=O)Nc4ccc(C(=O)NCCOC)cc4)cc3)nc21 [Compound 78, 4-({[4-(7-ethyl-4-morpholin-4-yl-7H-pyrrolo[2,3-d]pyrimidin-2-yl)phenyl]carbamoyl}amino)-N-(2-methoxyethyl)benzamide] | 9.5 nM | 118 nM | 1.15 nM | – |
| CNc1nc2cc(-c3nc(N4CCOCC4)c4ccn(CC(F)(F)F)c4n3)ccc2[nH]1 [Compound 48, N-methyl-5-[4-morpholin-4-yl-7-(2,2,2-trifluoroethyl)-7H-pyrrolo[2,3-d]pyrimidin-2-yl]-1H-benzimidazol-2-amine] | 1200 nM | 3660 nM | 340 nM | – |

Now from value to compound, other results behind:

| IC50 [4] | IC50 [5] | IC50 [6] | SMILES | other results |
| --- | --- | --- | --- | --- |
| < 2.3 nM | 13 nM | 0.64 nM | CC(C)n1ccc2c(N3CCOCC3)nc(-c3ccc(NC(=O)Nc4ccc(C(=O)N5CCNCC5)cc4)cc3)nc21 [Compound 83, 1-[4-(7-isopropyl-4-morpholin-4-yl-7H-pyrrolo[2,3-d]pyrimidin-2-yl)phenyl]-3-[4-(piperazin-1-ylcarbonyl)phenyl]urea] | – |
| < 1.9 nM | 15 nM | 0.94 nM | CC1(C)CN(C(=O)c2ccc(NC(=O)Nc3ccc(-c4nc(N5CCOCC5)c5ccn(CC(F)(F)F)c5n4)cc3)cc2)CCN1 [Compound 55, 1-{4-[(3,3-dimethylpiperazin-1-yl)carbonyl]phenyl}-3-{4-[4-morpholin-4-yl-7-(2,2,2-trifluoroethyl)-7H-pyrrolo[2,3-d]pyrimidin-2-yl]phenyl}urea] | – |
| 3.3 nM | 38 nM | 1.5 nM | CC(C)n1ccc2c(N3CCOCC3)nc(-c3ccc(NC(=O)Nc4ccc(C(=O)N5CCN(C)CC5)cc4)cc3)nc21 [Compound 82, 1-[4-(7-isopropyl-4-morpholin-4-yl-7H-pyrrolo[2,3-d]pyrimidin-2-yl)phenyl]-3-{4-[(4-methylpiperazin-1-yl)carbonyl]phenyl}urea] | – |
| 2.5 nM | 21 nM | 1.5 nM | CCN1CCN(C(=O)c2ccc(NC(=O)Nc3ccc(-c4nc(N5CCOCC5)c5ccn(CC)c5n4)cc3)cc2)CC1 [Compound 70, 1-[4-(7-ethyl-4-morpholin-4-yl-7H-pyrrolo[2,3-d]pyrimidin-2-yl)phenyl]-3-{4-[(4-ethylpiperazin-1-yl)carbonyl]phenyl}urea] | – |
| 4 nM | 61 nM | 0.91 nM | CCn1ccc2c(N3CCOCC3)nc(-c3ccc(NC(=O)Nc4ccc(C(=O)NCCN5CCCCC5)cc4)cc3)nc21 [Compound 68, 4-({[4-(7-ethyl-4-morpholin-4-yl-7H-pyrrolo[2,3-d]pyrimidin-2-yl)phenyl]carbamoyl}amino)-N-(2-piperidin-1-ylethyl)benzamide] | – |
| 5 nM | 88 nM | 0.55 nM | CC(C)n1ccc2c(N3CCOCC3)nc(-c3ccc(NC(=O)Nc4ccc(C(=O)NCCN5CCCC5)cc4)cc3)nc21 [Compound 87, 4-({[4-(7-isopropyl-4-morpholin-4-yl-7H-pyrrolo[2,3-d]pyrimidin-2-yl)phenyl]carbamoyl}amino)-N-(2-pyrrolidin-1-ylethyl)benzamide] | – |
| < 1.7 nM | 13 nM | 1.8 nM | CCn1ccc2c(N3CCOCC3)nc(-c3ccc(NC(=O)Nc4ccc(C(=O)N5C[C@@H](C)N[C@@H](C)C5)cc4)cc3)nc21 [Compound 64, 1-(4-{[(3R,5S)-3,5-dimethylpiperazin-1-yl]carbonyl}phenyl)-3-[4-(7-ethyl-4-morpholin-4-yl-7H-pyrrolo[2,3-d]pyrimidin-2-yl)phenyl]urea] | – |
